Source: US20200247897A1, “THERAPEUTIC ANTIBODIES BASED ON MUTATED IGG HEXAMERS” (GENMAB B.V., priority 2017, published 2020)

System: panel of 235 cell lines representing 14 tumor lineages
Experiment: ATPlite growth inhibition screening of a human cancer cell line panel (Horizon Discovery)
Type: cell-based
Method: A 72 hour ATPlite assay (except for DLD-1 and HCT116 cell lines, for which a 120 hour assay was performed) with growth inhibition analysis was performed in two parts at Horizon Discovery Ltd, UK. Samples were tested as four replicates in 384-well assay plates. Serial dilution series of antibody, starting from 0.072 μM final concentration was used for all tested cell lines. For TRAIL (Invitrogen; Cat # PHC1634) serial dilution series starting from 0.01 μM final concentration for the cell lines tested in the first part and 0.17 μM final concentration for the cell lines tested in the second part of the screening was used.

[1] = MCAS, ovary cancer, screening #1
[2] = MCF7, breast cancer, screening #2
[3] = MDA-MB-453, breast cancer (TNBC), screening #2
[4] = MDA-MB-468, breast cancer (TNBC), screening #2
[5] = OVCAR-5, ovary cancer, screening #1
[6] = OVK18, ovary cancer, screening #1
[7] = PK-1, pancreatic cancer, screening #1
[8] = PSN1, pancreatic cancer, screening #1
[9] = Panc 02.13, pancreatic cancer, screening #1
[10] = RERF-LC-KJ, NSCLC, screening #1
[11] = RT4, bladder cancer, screening #2
[12] = RT-112, bladder cancer, screening #2
[13] = SCaBER, bladder cancer, screening #1
[14] = SF295, neural tissue cancer, screening #2
[15] = SK-BR-3, breast cancer, screening #2
[16] = SNU119, ovary cancer, screening #1
[17] = SNU-308, liver cancer, screening #1
[18] = SW780, bladder cancer, screening #1
[19] = T47D, breast cancer, screening #2
[20] = T-24, bladder cancer, screening #2
[21] = TCCSUP, bladder cancer, screening #2
[22] = UM-UC-3, bladder cancer, screening #1

IC50 (LC1F, NSCLC, screening #1): 0.451 nM | IC50 (LC-1sq, NSCLC, screening #1): 0.781 nM | IC50 (LCLC-103H, NSCLC, screening #1): 8.02 nM | IC50 (LOU-NH91, NSCLC, screening #1): 5.38 nM | IC50 (LUDLU-1, NSCLC, screening #1): 0.475 nM | IC50 [1]: 56.8 nM | IC50 [2]: 0.055 nM | IC50 (MDA-MB-231, breast cancer (TNBC), screening #1): 0.11 nM | IC50 (MDA-MB-436, breast cancer (TNBC), screening #2): 0.053 nM | IC50 [3]: 34.6 nM | IC50 [4]: 0.647 nM | IC50 (MDST8, colorectal cancer, screening #1): 1.19 nM | IC50 (MES-SA, endometrial cancer, screening #1): 0.107 nM | IC50 (NCI-H460, NSCLC, screening #1): 0.853 nM | IC50 (NCI-H820, NSCLC, screening #1): 0.023 nM | IC50 (NMC-G1, neural tissue cancer, screening #2): 17.6 nM | IC50 [5]: 1.12 nM | IC50 [6]: 0.23 nM | IC50 [7]: 0.548 nM | IC50 [8]: 0.205 nM | IC50 [9]: 1.91 nM | IC50 [10]: 0.633 nM | IC50 (RL95-2, endometrial cancer, screening #1): 0.155 nM | IC50 [11]: 0.244 nM | IC50 [12]: 0.325 nM | IC50 [13]: 0.082 nM | IC50 (SF126, neural tissue cancer, screening #2): 0.013 nM | IC50 [14]: 0.023 nM | IC50 [15]: 0.518 nM | IC50 (SNB-75, neural tissue cancer, screening #2): 105 nM | IC50 (SNG-II, endometrial cancer, screening #1): 1.03 nM | IC50 (SNU5, gastric cancer, screening #1): 0.109 nM | IC50 [16]: 0.082 nM | IC50 (SNU1033, colorectal cancer, screening #1): 10.1 nM | IC50 (SNU-175, colorectal cancer, screening #1): 0.122 nM | IC50 [17]: 0.937 nM | IC50 (SNU-407, colorectal cancer, screening #1): 0.098 nM | IC50 (SNU-478, liver cancer, screening #1): 0.516 nM | IC50 (SNU-601, gastric cancer, screening #1): 0.284 nM | IC50 (SNU-620, gastric cancer, screening #1): 0.045 nM | IC50 (SNU-668, gastric cancer, screening #1): 0.041 nM | IC50 (SNU-719, gastric cancer, screening #1): 1.13 nM | IC50 (SNU-869, liver cancer, screening #1): 2.95 nM | IC50 (SNU-1197, colorectal cancer, screening #1): 0.053 nM | IC50 (SNU-C2B, colorectal cancer, screening #1): 0.713 nM | IC50 (SUM159PT, breast cancer (TNBC), screening #2): 0.033 nM | IC50 (SW480, colorectal cancer, screening #1): 2.04 nM | IC50 [18]: 0.016 nM | IC50 (SW837, colorectal cancer, screening #1): 0.94 nM | IC50 (T3M-10, NSCLC, screening #1): 0.495 nM | IC50 [19]: 347 nM | IC50 [20]: 0.166 nM | IC50 [21]: 0.048 nM | IC50 (TE-4, head and neck cancer, screening #1): 0.107 nM | IC50 (TE-6, head and neck cancer, screening #1): 3.92 nM | IC50 (TE-9, head and neck cancer, screening #1): 0.3 nM | IC50 (TEN, endometrial cancer, screening #1): 1.21 nM | IC50 (U-87 MG, neural tissue cancer, screening #2): 0.053 nM | IC50 [22]: 0.005 nM | IC50 (YD-15, head and neck cancer, screening #1): 0.114 nM | IC50 (YH-13, neural tissue cancer, screening #2): 0.317 nM
Substance: TRAIL: natural DR5 ligand, recombinant human TRAIL/APO-2L
Max Inhibition (KURAMOCHI, ovary cancer, screening #1): 13.4% | Max Inhibition (LC1F, NSCLC, screening #1): 74.3% | Max Inhibition (LC-1sq, NSCLC, screening #1): 70.1% | Max Inhibition (LCLC-97TM1, NSCLC, screening #1): 4.6% | Max Inhibition (LCLC-103H, NSCLC, screening #1): 54.2% | Max Inhibition (LK-2, NSCLC, screening #1): 5.6% | Max Inhibition (LOU-NH91, NSCLC, screening #1): 63.0% | Max Inhibition (LU-65, NSCLC, screening #1): 32.4% | Max Inhibition (LU-99, NSCLC, screening #1): 6.3% | Max Inhibition (LUDLU-1, NSCLC, screening #1): 91.1% | Max Inhibition (LXF-289, NSCLC, screening #1): 12.7% | Max Inhibition [1]: 48.4% | Max Inhibition [2]: 21.7% | Max Inhibition [3]: 20.7% | Max Inhibition [4]: 89.4% | Max Inhibition (MEL-HO, melanoma, screening #1): 16.7% | Max Inhibition (MEL-JUSO, melanoma, screening #1): 7.6% | Max Inhibition (NCI-H460, NSCLC, screening #1): 86.1% | Max Inhibition (NCI-H820, NSCLC, screening #1): 100.0% | Max Inhibition (OV7, ovary cancer, screening #1): 20.4% | Max Inhibition [5]: 70.6% | Max Inhibition (OVISE, ovary cancer, screening #1): 4.0% | Max Inhibition [6]: 80.0% | Max Inhibition (OVTOKO, ovary cancer, screening #1): 28.0% | Max Inhibition [7]: 88.3% | Max Inhibition [8]: 86.9% | Max Inhibition [9]: 60.5% | Max Inhibition [10]: 68.9% | Max Inhibition [11]: 91.5% | Max Inhibition [12]: 50.9% | Max Inhibition (RVH-421, melanoma, screening #1): 22.5% | Max Inhibition [13]: 25.8% | Max Inhibition [14]: 87.5% | Max Inhibition [15]: 38.1% | Max Inhibition (SK-MEL-30, melanoma, screening #1): 6.1% | Max Inhibition [16]: 83.7% | Max Inhibition [17]: 72.4% | Max Inhibition (SNU-878, liver cancer, screening #1): 36.2% | Max Inhibition [18]: 97.9% | Max Inhibition (SW1573, NSCLC, screening #1): 13.9% | Max Inhibition (T3M-10, NSCLC, screening #1): 83.7% | Max Inhibition [19]: 8.4% | Max Inhibition [20]: 20.5% | Max Inhibition [21]: 51.5% | Max Inhibition [22]: 99.4% | Max Inhibition (VMRC-LCD, NSCLC, screening #1): 19.2% | Max Inhibition (WM-266-4, melanoma, screening #1): 42.5% | responder cell lines (maximum response threshold 70% inhibition) (monotherapy, 72 hour ATPlite assay): found for all tested tumor indications, except small cell lung cancer (SCLC)
